Measured values taken from patent publication US10681909B2, “Herbicidal triazoles” (FMC Corporation, priority 2014, dated 2020).

Key:
lambsquarters = test: Test D postemergence; format: in vivo, Chenopodium album; settings: scale 0 to 100
Text: (§1) Seeds of plant species selected from bluegrass (annual bluegrass, Poa annua), blackgrass (Alopecurus myosuroides), canarygrass (Phalaris minor), chickweed (common chickweed, Stellaria media), galium (catchweed bedstraw, Galium aparine), bromegrass, down (downy bromegrass, Bromus tectorum), Russian thistle (Salsola kali), field poppy (Papaver rhoeas), field violet (Viola arvensis), foxtail, green (green foxtail, Setaria viridis), deadnettle (henbit deadnettle, Lamium amplexicaule), ryegrass, Ital. (Italian ryegrass, Lolium multiflorum), kochia (Kochia scoparia), lambsquarters (Chenopodium album), oilseed rape (Brassica napus), pigweed (Amaranthus retroflexus), chamomile (scentless chamomile, Matricaria inodora), speedwell (bird's-eye speedwell, Veronica persica), barley, spring (spring barley, Hordeum vulgare), wheat, spring (spring wheat, Triticum aestivum), buckwheat, wild (wild buckwheat, Polygonum convolvulus), wild mustard (Sinapis arvensis), oat, wild (wild oat, Avena fatua), radish, wild (wild radish, Raphanus raphanistrum), […]), barley, winter (winter barley, Hordeum vulgare), and wheat, winter (winter wheat, Triticum aestivum) were planted into a silt loam soil and treated preemergence with test chemicals formulated in a non-phytotoxic solvent mixture which included a surfactant. At the same time, these species were planted in pots containing Sunshine Redi-Earth® planting medium comprising spaghnum peat moss, vermiculite, starter nutrients and dolomitic limestone and treated with postemergence applications of the test chemicals formulated in the same manner. Plants ranged in height from 2 to 18 cm (1- to 4-leaf stage). Treated plants and controls were maintained in a controlled growth environment for 14 to 21 d after which time all species were compared to controls and visually evaluated. […] A dash (-) response means no test result.

ryegrass, Ital. = test: Test D preemergence; format: in vivo, Lolium multiflorum; settings: for Plant response rating (0 to 100), Ryegrass, Ital.: 16 g ai/ha, 0 is no effect, 100 is complete control; for Plant response rating: Ryegrass, Ital.: scale 0 to 100
Text: as §1

Russian thistle = test: Test D preemergence; format: in vivo, Salsola kali; settings: for Plant response rating (0 to 100), Russian Thistle: 16 g ai/ha, 0 is no effect, 100 is complete control; for Plant response rating: Russian Thistle: scale 0 to 100
Text: as §1

deadnettle = test: Test D preemergence; format: in vivo, Lamium amplexicaule; settings: for Plant response rating (0 to 100), Deadnettle: 16 g ai/ha, 0 is no effect, 100 is complete control; for Plant response rating: Deadnettle: scale 0 to 100
Text: as §1

oat, wild = test: Test D postemergence; format: in vivo, Avena fatua; settings: scale 0 to 100
Text: as §1

ryegrass, Italian = test: Test C preemergence; format: in vivo, Lolium multiflorum; settings: for Ryegrass, Italian plant response rating (0 to 100): Preemergence, visual rating after 13 to 15 d; for Plant response rating (scale of 0 to 100 where 0 is no effect and 100 is complete control): Ryegrass, Italian, preemergence
In short: (§2)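 Surfactant-containing, non-phytotoxic solvent formulations of each compound were applied either preemergence to seeds in a loam soil–sand blend or postemergence to plants 2 to 18 cm tall (1- to 4-leaf stage). Postemergence plants were grown in peat moss–vermiculite medium.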

blackgrass = test: Test D postemergence; format: in vivo, Alopecurus myosuroides; settings: scale 0 to 100
Text: as §1

chickweed [1] = test: Test D preemergence; format: in vivo, Stellaria media; settings: for Plant response rating (0 to 100), Chickweed: 16 g ai/ha, 0 is no effect, 100 is complete control; for Plant response rating: Chickweed: scale 0 to 100
Text: as §1

barley, winter = test: Test D preemergence; format: in vivo, Hordeum vulgare; settings: for Plant response rating (0 to 100), Barley, Winter: 16 g ai/ha, 0 is no effect, 100 is complete control; for Plant response rating: Barley, Winter: scale 0 to 100
Text: as §1

barley, spring = test: Test D preemergence; format: in vivo, Hordeum vulgare; settings: for Plant response rating (0 to 100), Barley, Spring: 16 g ai/ha, 0 is no effect, 100 is complete control; for Plant response rating: Barley, Spring: scale 0 to 100
Text: as §1

chickweed [2] = test: Test D postemergence; format: in vivo, Stellaria media; settings: scale 0 to 100
Text: as §1

velvetleaf = test: Test C preemergence; format: in vivo, Abutilon theophrasti; settings: for Velvetleaf plant response rating (0 to 100): Preemergence, visual rating after 13 to 15 d; for Plant response rating (scale of 0 to 100 where 0 is no effect and 100 is complete control): Velvetleaf, preemergence, 250 g ai/ha
In short: as §2

ragweed = test: Test C preemergence; format: in vivo, Ambrosia elatior; settings: for Ragweed plant response rating (0 to 100): Preemergence, visual rating after 13 to 15 d; for Plant response rating (scale of 0 to 100 where 0 is no effect and 100 is complete control): Ragweed, preemergence
In short: as §2

CCOc1nc(-c2ccccc2)nn1Cc1ccnc(C(F)(F)F)c1 [Compound 27]
Plant response rating: Lambsquarters (lambsquarters; 16 g ai/ha): 85 | Plant response rating: Lambsquarters (lambsquarters; 31 g ai/ha): 95 | Plant response rating: Lambsquarters (lambsquarters; 62 g ai/ha): 95 | Plant response rating: Lambsquarters (lambsquarters; 125 g ai/ha): 95 | Plant response rating (0 to 100), Ryegrass, Ital. (ryegrass, Ital.): 25 | Plant response rating: Ryegrass, Ital. (ryegrass, Ital.; 62 g ai/ha): 65 | Plant response rating: Ryegrass, Ital. (ryegrass, Ital.; 125 g ai/ha): 75 | Plant response rating (0 to 100), Russian Thistle (Russian thistle): 75 | Plant response rating: Russian Thistle (Russian thistle; 62 g ai/ha): 85 | Plant response rating: Russian Thistle (Russian thistle; 125 g ai/ha): 85 | Plant response rating (0 to 100), Deadnettle (deadnettle): 80 | Plant response rating: Deadnettle (deadnettle; 31 g ai/ha): 100 | Plant response rating: Deadnettle (deadnettle; 62 g ai/ha): 100 | Plant response rating: Deadnettle (deadnettle; 125 g ai/ha): 100 | Plant response rating: Oat, Wild (oat, wild; 16 g ai/ha): 35 | Plant response rating: Oat, Wild (oat, wild; 31 g ai/ha): 45 | Plant response rating: Oat, Wild (oat, wild; 62 g ai/ha): 50 | Plant response rating: Oat, Wild (oat, wild; 125 g ai/ha): 60 | Ryegrass, Italian plant response rating (0 to 100) (ryegrass, Italian; 31 g ai/ha): 25 | Ryegrass, Italian plant response rating (0 to 100) (ryegrass, Italian; 62 g ai/ha): 30 | Plant response rating (scale of 0 to 100 where 0 is no effect and 100 is complete control) (ryegrass, Italian; 125 g ai/ha): 90 | Plant response rating (scale of 0 to 100 where 0 is no effect and 100 is complete control) (ryegrass, Italian; 250 g ai/ha): 95 | Plant response rating: Blackgrass (blackgrass; 16 g ai/ha): 45 | Plant response rating: Blackgrass (blackgrass; 31 g ai/ha): 50 | Plant response rating: Blackgrass (blackgrass; 62 g ai/ha): 55 | Plant response rating: Blackgrass (blackgrass; 125 g ai/ha): 65 | Plant response rating (0 to 100), Chickweed (chickweed [1]): 85 | Plant response rating: Chickweed (chickweed [1]; 31 g ai/ha): 95 | Plant response rating: Chickweed (chickweed [1]; 62 g ai/ha): 100 | Plant response rating: Chickweed (chickweed [1]; 125 g ai/ha): 100 | Plant response rating (0 to 100), Barley, Winter (barley, winter): 15 | Plant response rating: Barley, Winter (barley, winter; 31 g ai/ha): 25 | Plant response rating: Barley, Winter (barley, winter; 62 g ai/ha): 30 | Plant response rating: Barley, Winter (barley, winter; 125 g ai/ha): 35 | Plant response rating (0 to 100), Barley, Spring (barley, spring): 25 | Plant response rating: Barley, Spring (barley, spring; 31 g ai/ha): 25 | Plant response rating: Barley, Spring (barley, spring; 62 g ai/ha): 35 | Plant response rating: Barley, Spring (barley, spring; 125 g ai/ha): 35 | Plant response rating: Chickweed (chickweed [2]; 16 g ai/ha): 85 | Plant response rating: Chickweed (chickweed [2]; 31 g ai/ha): 95 | Plant response rating: Chickweed (chickweed [2]; 62 g ai/ha): 100 | Plant response rating: Chickweed (chickweed [2]; 125 g ai/ha): 100 | Velvetleaf plant response rating (0 to 100) (velvetleaf; 31 g ai/ha): 10 | Velvetleaf plant response rating (0 to 100) (velvetleaf; 62 g ai/ha): 70 | Plant response rating (scale of 0 to 100 where 0 is no effect and 100 is complete control) (velvetleaf): 100 | Ragweed plant response rating (0 to 100) (ragweed; 31 g ai/ha): 50 | Ragweed plant response rating (0 to 100) (ragweed; 62 g ai/ha): 50 | Plant response rating (scale of 0 to 100 where 0 is no effect and 100 is complete control) (ragweed; 125 g ai/ha): 98 | Plant response rating (scale of 0 to 100 where 0 is no effect and 100 is complete control) (ragweed; 250 g ai/ha): 98

Fc1ccc(-c2nc(OCC(F)(F)F)n(Cc3ccnc(C(F)(F)F)c3)n2)cc1 [Compound 30]
Plant response rating: Lambsquarters (lambsquarters; 16 g ai/ha): 85 | Plant response rating: Lambsquarters (lambsquarters; 31 g ai/ha): 90 | Plant response rating: Lambsquarters (lambsquarters; 62 g ai/ha): 95 | Plant response rating: Lambsquarters (lambsquarters; 125 g ai/ha): 95 | Plant response rating (0 to 100), Ryegrass, Ital. (ryegrass, Ital.): 40 | Plant response rating: Ryegrass, Ital. (ryegrass, Ital.; 62 g ai/ha): 55 | Plant response rating: Ryegrass, Ital. (ryegrass, Ital.; 125 g ai/ha): 70 | Plant response rating (0 to 100), Russian Thistle (Russian thistle): 80 | Plant response rating: Russian Thistle (Russian thistle; 62 g ai/ha): 90 | Plant response rating: Russian Thistle (Russian thistle; 125 g ai/ha): 90 | Plant response rating (0 to 100), Deadnettle (deadnettle): 85 | Plant response rating: Deadnettle (deadnettle; 31 g ai/ha): 95 | Plant response rating: Deadnettle (deadnettle; 62 g ai/ha): 100 | Plant response rating: Deadnettle (deadnettle; 125 g ai/ha): 100 | Plant response rating: Oat, Wild (oat, wild; 16 g ai/ha): 40 | Plant response rating: Oat, Wild (oat, wild; 31 g ai/ha): 40 | Plant response rating: Oat, Wild (oat, wild; 62 g ai/ha): 65 | Plant response rating: Oat, Wild (oat, wild; 125 g ai/ha): 75 | Ryegrass, Italian plant response rating (0 to 100) (ryegrass, Italian; 31 g ai/ha): 5 | Ryegrass, Italian plant response rating (0 to 100) (ryegrass, Italian; 62 g ai/ha): 60 | Plant response rating (scale of 0 to 100 where 0 is no effect and 100 is complete control) (ryegrass, Italian; 125 g ai/ha): 70 | Plant response rating (scale of 0 to 100 where 0 is no effect and 100 is complete control) (ryegrass, Italian; 250 g ai/ha): 70 | Plant response rating: Blackgrass (blackgrass; 16 g ai/ha): 45 | Plant response rating: Blackgrass (blackgrass; 31 g ai/ha): 60 | Plant response rating: Blackgrass (blackgrass; 62 g ai/ha): 65 | Plant response rating: Blackgrass (blackgrass; 125 g ai/ha): 75 | Plant response rating (0 to 100), Chickweed (chickweed [1]): 70 | Plant response rating: Chickweed (chickweed [1]; 31 g ai/ha): 80 | Plant response rating: Chickweed (chickweed [1]; 62 g ai/ha): 100 | Plant response rating: Chickweed (chickweed [1]; 125 g ai/ha): 100 | Plant response rating (0 to 100), Barley, Winter (barley, winter): 20 | Plant response rating: Barley, Winter (barley, winter; 31 g ai/ha): 25 | Plant response rating: Barley, Winter (barley, winter; 62 g ai/ha): 30 | Plant response rating: Barley, Winter (barley, winter; 125 g ai/ha): 40 | Plant response rating (0 to 100), Barley, Spring (barley, spring): 30 | Plant response rating: Barley, Spring (barley, spring; 31 g ai/ha): 40 | Plant response rating: Barley, Spring (barley, spring; 62 g ai/ha): 35 | Plant response rating: Barley, Spring (barley, spring; 125 g ai/ha): 45 | Plant response rating: Chickweed (chickweed [2]; 16 g ai/ha): 70 | Plant response rating: Chickweed (chickweed [2]; 31 g ai/ha): 80 | Plant response rating: Chickweed (chickweed [2]; 62 g ai/ha): 100 | Plant response rating: Chickweed (chickweed [2]; 125 g ai/ha): 100 | Velvetleaf plant response rating (0 to 100) (velvetleaf; 31 g ai/ha): 20 | Velvetleaf plant response rating (0 to 100) (velvetleaf; 62 g ai/ha): 70 | Plant response rating (scale of 0 to 100 where 0 is no effect and 100 is complete control) (velvetleaf): 85 | Ragweed plant response rating (0 to 100) (ragweed; 31 g ai/ha): 55 | Ragweed plant response rating (0 to 100) (ragweed; 62 g ai/ha): 65 | Plant response rating (scale of 0 to 100 where 0 is no effect and 100 is complete control) (ragweed; 125 g ai/ha): 80 | Plant response rating (scale of 0 to 100 where 0 is no effect and 100 is complete control) (ragweed; 250 g ai/ha): 90
